Measurements as given in US9676779B2, “Small molecule CFTR correctors” (DISCOVERYBIOMED, INC., priority 2012, dated 2017).

Target: T1, delF508-CFTR (Homo sapiens, UniProt P13569, DEL508-508)
T1 construct: Unaltered CFBE41o− cells were used as the model; endogenous in cells; host or cells: CFBE41o- human CF bronchial epithelial cells (delF508 homozygous, not overexpressing)
Test: SPQ halide-sensitive fluorescence dye profiling assay (rescue of halide efflux)
Type: cell-based
Details: for EC50 / EC50 (μM): SPQ assay, 8-point concentration-response curve, CFBE41o− cells; for Emax: VX-809 at 3 μM treated as 100% efficacy; for Efficacy Comparison to 3 μM VX-809: compared to VX-809 at 3 μM; for potency and efficacy versus VX-809 in SPQ profiling: compounds advanced to further profiling
Method: The method of profiling can include detecting the rescue of halide efflux from a cell. The step of detecting a rescue of halide efflux from the cell can be monitored using the halide quenched dye 6-methoxy-N-(3-sulfopropyl)-quinolinium (SPQ, Molecular Probes Inc., Eugene, Oreg.). In this method, cells are treated with a compound as described herein for a period of time (e.g., 48 hours). The rescue or correction of halide efflux is then detected using the SPQ assay with the halide dye. […] Optionally, the halide efflux is chloride efflux. The method of screening can further comprise performing the method with multiple concentrations of the compound.
The compounds were initially subjected to the SPQ halide-sensitive fluorescence dye profiling assay for rescue or correction of membrane chloride ion permeability or transport with an 8-point concentration-response curve. The EC50 values for the compounds described herein were determined and compared to the efficacy of the industry standard Vertex 809 (VX-809; Vertex Pharmaceuticals, Cambridge, Mass.) at 3 μM, which is the maximally effective profiling dose for VX-809 (Table 1). The VX-809 dosage at 3 μM was treated as having 100% efficacy in the comparison.
To perform the SPQ high throughput screening assay, CFBE41o− cells were seeded into 96-well microtiter plates and were loaded with the fluorescent halide-sensitive dye, SPQ, in serum-containing culture medium. Certain wells were loaded with known positive control corrector molecules, including VX-809. The test compounds were loaded into wells and were tested in triplicate wells at a 10 μM dose and incubated over 48 hours at room temperature. During the 48 hour period, SPQ was absorbed. Plates were washed in a sodium chloride (NaCl) based Ringer and read once over two minutes to set the baseline SPQ fluorescence activity. Then, NaCl was replaced by sodium nitrate (NaNO3) based Ringer. The plates were read twice over four minutes. The primary high throughput screen (HTS) data were analyzed to detect any function of rescued delF508-CFTR under basal conditions. The plate was read up to two times to complete the SPQ HTS assay.

T1 sequence (P13569 with tags, fused parts or gaps DEL508-508): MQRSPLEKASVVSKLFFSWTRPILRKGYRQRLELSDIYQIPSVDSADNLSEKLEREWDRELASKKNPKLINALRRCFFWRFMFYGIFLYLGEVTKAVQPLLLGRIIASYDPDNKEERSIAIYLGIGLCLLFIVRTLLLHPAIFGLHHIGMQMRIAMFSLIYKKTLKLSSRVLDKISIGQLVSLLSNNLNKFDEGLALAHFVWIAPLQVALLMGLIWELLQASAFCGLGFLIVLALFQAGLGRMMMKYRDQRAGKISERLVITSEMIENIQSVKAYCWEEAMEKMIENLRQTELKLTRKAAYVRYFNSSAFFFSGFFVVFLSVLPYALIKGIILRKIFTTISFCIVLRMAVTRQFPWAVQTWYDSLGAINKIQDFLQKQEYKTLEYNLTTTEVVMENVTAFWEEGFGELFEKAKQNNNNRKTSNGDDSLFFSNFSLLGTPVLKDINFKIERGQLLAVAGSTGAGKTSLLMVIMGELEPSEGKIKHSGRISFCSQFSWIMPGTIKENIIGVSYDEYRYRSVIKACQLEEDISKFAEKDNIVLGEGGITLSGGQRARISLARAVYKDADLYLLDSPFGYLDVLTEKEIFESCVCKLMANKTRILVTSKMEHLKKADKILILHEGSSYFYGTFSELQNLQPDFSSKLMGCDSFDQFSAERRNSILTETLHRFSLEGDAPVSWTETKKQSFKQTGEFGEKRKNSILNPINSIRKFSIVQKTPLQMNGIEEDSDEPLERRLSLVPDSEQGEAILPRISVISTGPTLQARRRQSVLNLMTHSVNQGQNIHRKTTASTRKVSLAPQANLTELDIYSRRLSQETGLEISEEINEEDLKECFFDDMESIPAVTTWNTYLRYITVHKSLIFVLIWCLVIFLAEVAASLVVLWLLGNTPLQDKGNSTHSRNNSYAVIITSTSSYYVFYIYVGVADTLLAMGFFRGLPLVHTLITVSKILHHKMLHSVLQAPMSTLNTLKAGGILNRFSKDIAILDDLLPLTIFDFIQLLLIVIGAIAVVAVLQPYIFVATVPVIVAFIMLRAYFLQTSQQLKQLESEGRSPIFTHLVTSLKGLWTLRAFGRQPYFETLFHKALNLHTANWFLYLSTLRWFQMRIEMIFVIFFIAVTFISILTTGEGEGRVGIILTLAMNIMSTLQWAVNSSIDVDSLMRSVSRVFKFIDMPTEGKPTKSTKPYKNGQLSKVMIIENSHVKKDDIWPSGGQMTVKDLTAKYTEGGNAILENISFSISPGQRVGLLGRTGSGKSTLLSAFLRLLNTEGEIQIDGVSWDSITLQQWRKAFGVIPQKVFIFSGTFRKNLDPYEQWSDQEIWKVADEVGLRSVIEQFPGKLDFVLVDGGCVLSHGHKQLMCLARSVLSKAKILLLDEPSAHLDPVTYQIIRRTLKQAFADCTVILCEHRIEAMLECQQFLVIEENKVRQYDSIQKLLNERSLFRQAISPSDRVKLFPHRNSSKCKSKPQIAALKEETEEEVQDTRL

| Structure (SMILES) | EC50 [µM] | Emax [%] | Efficacy Comparison to 3 μM VX-809 | EC50 (μM) | potency and efficacy versus VX-809 in SPQ profiling |
| --- | --- | --- | --- | --- | --- |
| Cc1nn2c(C)c(C(=O)O)nnc2c1-c1ccc(Cl)cc1 [Compound C-1] | 1.9 | 200 |  |  |  |
| Cc1nn2cc(C(=O)O)nnc2c1-c1ccc(Cl)cc1 [Compound C-3] | 11.5 | 200 | Equivalent to VX-809 |  |  |
| O=C(O)c1cn2ncc(-c3ccc(Cl)cc3)c2nn1 [Compound C-4] |  | 0 |  | No effect |  |
| Cc1nn2c(C)c(C(=O)O)nnc2c1-c1ccc(Cl)c(Cl)c1 [Compound C-5] | 0.1 | 160 | 10-fold greater than VX-809 |  | superior potency and efficacy to VX-809 |
| COc1ccc(-c2c(C)nn3c(C)c(C(=O)O)nnc23)cc1OC [Compound C-6] | 9.9 | 170 | 3-fold greater than VX-809 |  |  |
| CCOc1ccc(-c2c(C)nn3c(C)c(C(=O)O)nnc23)cc1 [Compound C-7] | 7 | 220 | 3-fold greater than VX-809 |  |  |
| CCCOc1ccc(-c2c(C)nn3c(C)c(C(=O)O)nnc23)cc1 [Compound C-8] | 5.7 | 155 | 2-fold greater than VX-809 |  |  |
| Cc1nn2c(C)c(C(=O)O)nnc2c1-c1ccc(O)cc1 [Compound C-9] | 17.8 | 120 | Less than VX-809 |  |  |
| Cc1c(C(=O)O)nnc2c(-c3ccc(Cl)cc3)c(-c3ccc(Cl)cc3)nn12 [Compound C-10] |  | 40 |  | No effect |  |
| Cc1c(C(=O)O)nnc2c(-c3ccccc3)c(-c3ccccc3)nn12 [Compound C-11] |  | 0 |  | No effect |  |
| CCOC(=O)c1cn2nc(C)c(-c3ccc(Cl)cc3)c2nn1 [Compound C-13] |  | 0 |  | No effect |  |
| CCOC(=O)c1cn2ncc(-c3ccc(Cl)cc3)c2nn1 [Compound C-14] |  | 0 |  | No effect |  |
| CCOC(=O)c1nnc2c(-c3ccc(OC)c(OC)c3)c(C)nn2c1C [Compound C-16] | 2.2 | 80 | 2-fold greater than VX-809 |  |  |
| CCOC(=O)c1nnc2c(-c3ccc(OCC)cc3)c(C)nn2c1C [Compound C-17] | > 30 | 75 | Equivalent to VX-809 |  |  |
| CCCOc1ccc(-c2c(C)nn3c(C)c(C(=O)OCC)nnc23)cc1 [Compound C-18] | 3.1 | 20 | Less than VX-809 |  |  |
| CCOC(=O)c1nnc2c(-c3ccc(O)cc3)c(C)nn2c1C [Compound C-19] |  | 0 |  | No effect |  |
| CCCOC(=O)c1nnc2c(-c3ccc(Cl)cc3)c(C)nn2c1C [Compound C-20] | 2 | 100 | 2.5-fold greater than VX-809 |  |  |
| Cc1nn2c(C)c(C(=O)OC(C)C)nnc2c1-c1ccc(Cl)cc1 [Compound C-21] | 1.1 | 50 | 2.5-fold greater than VX-809 |  |  |
| Cc1nn2c(C)c(C(=O)O)nnc2c1-c1cc(Cl)cc(Cl)c1 [Compound C-22] | 1.3 | 130 | 12-fold greater than VX-809 |  | superior potency and efficacy to VX-809 |
| Cc1nn2c(C)c(C(=O)O)nnc2c1-c1ccc(F)c(F)c1 [Compound C-23] |  | 110 | Equivalent to VX-809 |  |  |
| Cc1nn2c(N)c(C(=O)O)nnc2c1-c1ccc(Cl)c(Cl)c1 [Compound C-25] | 0.83 | 100 | 10-fold greater than VX-809 |  | superior potency and efficacy to VX-809 |
| CCOC(=O)c1nnc2c(-c3ccc(Cl)c(Cl)c3)c(C)nn2c1C(=O)OCC [Compound C-26.1] |  | 0 |  | No effect (toxic |  |
| CCOC(=O)c1c(C(=O)OC(C)(C)C)nnc2c(-c3ccc(Cl)c(Cl)c3)c(C)nn12 [Compound C-26.2] |  | 0 |  | No effect (toxic |  |
| Cc1nn2c(N)c(C(=O)O)nnc2c1-c1ccc(Cl)cc1 [Compound C-27] | 3.3 | 90 | 2-fold greater than VX-809 |  |  |

| Structure (SMILES) | EC50 [µM] | Emax [%] | Efficacy Comparison to 3 μM VX-809 | EC50 (μM) | potency and efficacy versus VX-809 in SPQ profiling |
| --- | --- | --- | --- | --- | --- |
| CCOC(=O)c1nnc2c(-c3ccc(Cl)cc3)c(C)nn2c1C(=O)OCC [Compound C-28.1] |  | 0 |  | No effect |  |
| Cc1nn2c(C)c(C(N)=O)nnc2c1-c1ccc(Cl)c(Cl)c1 [Compound C-29] |  | 0 |  | No effect |  |
| CNC(=O)c1nnc2c(-c3ccc(Cl)c(Cl)c3)c(C)nn2c1C [Compound C-30] | 26.3 | 50 | Less than VX-809 |  |  |
| Cc1nn2c(C)c(C(=O)N(C)C)nnc2c1-c1ccc(Cl)c(Cl)c1 [Compound C-31] |  | 0 |  | No effect |  |
| COC(=O)C(=O)c1nnc2c(-c3ccc(Cl)c(Cl)c3)c(C)nn2c1C [Compound C-32.1] |  | 5 |  | No effect (toxic |  |
| Cc1nn2c(C)c(C(=O)C(=O)O)nnc2c1-c1ccc(Cl)c(Cl)c1 [Compound C-32] | 6 | 160 | 2.5-fold greater than VX-809 |  |  |
| Cc1nn2c(C)c(C(=O)OC(C)(C)C)nnc2c1-c1ccc(Cl)c(Cl)c1 [Compound C-34] | 0.58 | 0 |  |  |  |
| Cc1nn2c(C)c(C(=O)Oc3ccccc3)nnc2c1-c1ccc(Cl)c(Cl)c1 [Compound C-35] | 0.7 | 100 | Equivalent to VX-809 |  |  |
| Cc1nn2c(C)c(C(=O)NS(C)(=O)=O)nnc2c1-c1ccc(Cl)c(Cl)c1 [Compound C-36] | 4.8 | 50 | Equivalent to VX-809 |  |  |
| CCS(=O)(=O)NC(=O)c1nnc2c(-c3ccc(Cl)c(Cl)c3)c(C)nn2c1C [Compound C-37] | 5.1 | 80 | Equivalent to VX-809 |  |  |
| Cc1nn2c(C)c(-c3nnn[nH]3)nnc2c1-c1ccc(Cl)c(Cl)c1 [Compound C-40] |  | 0 |  | No effect (toxic |  |
| Cc1cnc(-c2nnc3c(-c4ccc(Cl)c(Cl)c4)c(C)nn3c2C)o1 [Compound C-41] |  | 0 |  | No effect |  |
| Cc1nnc(-c2nnc3c(-c4ccc(Cl)c(Cl)c4)c(C)nn3c2C)o1 [Compound C-42] |  | 5 |  | No effect |  |
| Cc1nn2c(C)c(-c3nnco3)nnc2c1-c1ccc(Cl)c(Cl)c1 [Compound C-43] | 11 | 50 | Equivalent to VX-809 |  |  |
| Cc1nn2c(C)c(C(=O)O)cnc2c1-c1ccc(Cl)c(Cl)c1 [Compound C-45] | 2.5 | 50 | Equivalent to VX-809 |  |  |
| Cc1nn2c(C)c(C(=O)OC(C)C)nnc2c1-c1ccc(Cl)c(Cl)c1 [Compound C-49] | 2 | 50 | Equivalent to VX-809 |  |  |
| Cc1nn2c(C)c(C(=O)OC3CCCC3)nnc2c1-c1ccc(Cl)c(Cl)c1 [Compound C-50] | 0.5 | 30 | Equivalent to VX-809 |  |  |
| Cc1nn2c(C)c(C(=O)O)nnc2c1C1CCCCC1 [Compound C-51] | 3.4 | 50 | Equivalent to VX-809 |  |  |
| Cc1nn2c(C)c(C(=O)O)nnc2c1Cc1ccccc1 [Compound C-52] | 20 | 70 | Less than VX-809 |  |  |
| Cc1nn2c(C)c(C(=O)O)nnc2c1Cc1ccc(Cl)c(Cl)c1 [Compound C-53] |  | 75 | Less than VX-809 |  |  |
| CCCCOc1ccc(-c2c(C)nn3c(C)c(C(=O)O)nnc23)cc1 [Compound C-54] | 6.7 | 125 | 2-fold greater than VX-809 |  |  |
| Cc1nn2c(C)c(C(=O)O)nnc2c1-c1ccc(OC(C)C)cc1 [Compound C-55] | 0.66 | 100 | 10-fold greater than VX-809 |  | superior potency and efficacy to VX-809 |
| Cc1nn2c(C)c(C(=O)O)nnc2c1-c1ccc(OC(C)(C)C)cc1 [Compound C-56] | 11.6 | 20 | Less than VX-809 |  |  |
| Cc1nn2c(C)c(C(=O)O)nnc2c1-c1ccc2c(c1)OCO2 [Compound C-57] | 12 | 20 |  |  |  |
